{"source": "patent US9474759B2", "about": "(priority 2011, dated 2016)", "key": {"[1]": {"system": "human norovirus (GII.12 HS206)", "assay": "Gnotobiotic pig model of human norovirus infection, repeat at 100 mg/kg/day", "type": "in vivo", "settings": "Gn pigs", "source_text": "After antiviral treatment or HuNoV inoculation, clinical signs and fecal virus shedding were monitored daily through day 14."}, "TGEV 3CL protease": {"target": "TGEV 3CL protease (Porcine transmissible gastroenteritis coronavirus, UniProt P0C6Y5)", "sequence (P0C6Y5 2879-3180)": "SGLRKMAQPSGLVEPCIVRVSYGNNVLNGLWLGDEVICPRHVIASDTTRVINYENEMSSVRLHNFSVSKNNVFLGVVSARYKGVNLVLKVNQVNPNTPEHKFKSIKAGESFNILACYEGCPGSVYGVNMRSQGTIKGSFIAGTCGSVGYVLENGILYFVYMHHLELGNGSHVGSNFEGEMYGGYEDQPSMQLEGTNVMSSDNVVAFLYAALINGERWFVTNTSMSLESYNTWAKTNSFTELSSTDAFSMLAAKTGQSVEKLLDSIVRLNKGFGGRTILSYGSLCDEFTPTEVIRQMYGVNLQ", "assay": "FRET-based protease assay, TGEV 3CL protease (Example 5)", "type": "biochemical, TGEV Miller strain", "settings": "compound at 50 μM final concentration", "source_text": "The 3CL proteases are highly conserved among all coronaviruses, and feline coronavirus 3CL protease is closely related TGEV 3CL protease. Therefore we cloned and expressed the TGEV 3CL protease for the FRET assay. The cDNA encoding the full length of 3CL protease of TGEV Miller strain was amplified with RT-PCR as previously described. The primers contained the nucleotide sequence of the 3CL protease for cloning as well as the nucleotides for 6 Histidine in the forward primer. The amplified product was subcloned to pET-28a(+) vector (GenScript, Piscataway, N.J.). The expression and purification of the 3CL protease was performed with a standard method described previously by our lab (Chang et al., 2012b; Takahashi et al., 2012; Tiew et al., 2011).\nOur protease inhibitor compounds and commercial cathepsin inhibitors CA074-Me and E64d were prepared in DMSO as stock solutions (10 mM), and further diluted in assay buffer consisting of 20 mM HEPES, 0.4 mM EDTA, 30% glycerol, 120 mM NaCl, and 4 mM DTT at pH 6. […] TGEV 3CL protease at a final concentration of 0.1˜0.2 μM and the substrate (Dabcyl-[…]-Edans; SEQ ID NO:2) at 10 μM were used for the studies. The substrate was purchased from Bachem Americas, Inc (Torrance, Calif.). Compounds at various concentrations (0˜50 μM) were pre-incubated with TGEV 3CL protease in 25 μl for 30 min at 37° C., and the same volume of substrate was added to a 96-well black plate. The mixtures were then incubated at 37° C. for 60 min, and fluorescence readings were obtained on a microplate reader at 360 nm excitation and 480 nm emission wavelengths. The relative fluorescence units (RFU) were calculated by subtracting background (substrate control well without protease) from the fluorescence readings. The dose-dependent FRET inhibition curves were fitted with variable slope (four parameters) using GraphPad Prism software (La Jolla, Calif.) in order to determine the compound concentration that gives a half-maximum response (IC50)."}, "[2]": {"assay": "PK and oral bioavailability studies in rats", "settings": "20 mg/Kg (body weight), IV or PO"}, "[3]": {"system": "3CLpro of NV, MD145, MNV-1", "type": "biochemical, norovirus", "settings": "optimized FRET-based protease assay"}, "HAV": {"system": "HAV", "assay": "Cell culture system, HAV replication in FRhK-4 cells (Example 3)", "type": "cell-based, hepatitis A virus"}, "MNV-1": {"system": "MNV-1", "settings": "MNV-1 passaged in the presence of the drug"}, "human norovirus (HuNoV)": {"system": "human norovirus (HuNoV)", "assay": "Gnotobiotic pig model of human norovirus infection, first trial", "type": "in vivo, gnotobiotic (Gn) pigs", "source_text": "We investigated if fecal norovirus shedding in human norovirus-inoculated gnotobiotic (Gn) pigs is altered the by treatment with GC376. […] On day 2 after antiviral treatment, they were inoculated orally with 1.0×10^10 genome equivalent (GE) of Human norovirus (GII.12 HS206). Rectal swabs were collected daily from each animal throughout the experiment, and fecal virus shedding and clinical signs were monitored daily until virus was not detectable by real-time qRT-PCR. The Table below summarizes the results."}, "[4]": {"settings": "oral 100 mg/kg once a day for 5 days"}, "[5]": {"settings": "Gn pigs, oral 25 mg/kg twice a day 10 days then approx. 12.5 mg/kg twice a day 5 days"}, "[6]": {"settings": "same regimen, detection limit 4.7 log10 GE/ml"}}}
{"smiles": "CC(C)C[C@H](NC(=O)OCc1ccccc1)C(=O)N[C@@H](C[C@@H]1CCNC1=O)C(O)S(=O)(=O)[O-].[Na+]", "note": "(some centres unmarked) [GC376]", "values": [{"measurement": "Mean duration of virus shedding (SEM), Tx (+) at PIDs 1-5", "setting": "[1]; [4]", "result": "3.3 (0.3)"}, {"measurement": "Mean duration of virus shedding (SEM), Tx (−) at PIDs 6-14", "setting": "[1]; [4]", "result": "4.0 (2.0)"}, {"measurement": "Mean log10 viral titer/rectal swab (GE/ml) (SEM), Overall viral titer shed at PIDs 1-14", "setting": "[1]; [4]", "result": "5.17 (0.08)^B log10 GE/ml"}, {"measurement": "Mean log10 viral titer/rectal swab (GE/ml) (SEM), Tx (+) at PIDs 1-5", "setting": "[1]; [4]", "result": "5.28 (0.13)^b,A log10 GE/ml"}, {"measurement": "Mean log10 viral titer/rectal swab (GE/ml) (SEM), Tx (−) at PIDs 6-14", "setting": "[1]; [4]", "result": "5.11 (0.10)^B log10 GE/ml"}, {"measurement": "fecal viral RNA titers after treatment was discontinued vs 30% DMSO vehicle pigs (in words)", "setting": "[1]; [4]", "result": "significantly lower fecal viral RNA titers"}, {"measurement": "Mean onset of virus shedding (PID) (SEM)", "setting": "[1]; oral 100 mg/kg once a day for 5 days from day 1 after inoculation", "result": "2.7 (0.3) PID"}, {"measurement": "inhibition of the activity of TGEV 3CL protease (in words)", "setting": "TGEV 3CL protease", "result": "remarkably inhibited"}, {"measurement": "oral bioavailability, % F", "setting": "[2]", "result": 4, "unit": "% F"}, {"measurement": "effect on the activity of 3CLpro of NV, MD145, MNV-1 (in words)", "setting": "[3]", "result": "highly effective"}, {"measurement": "effectiveness against the replication of HAV in cells (in words)", "setting": "HAV", "result": "no or weak effectiveness"}, {"measurement": "increase of IC50 at passage number 15", "setting": "MNV-1", "result": "up to 10 fold"}, {"measurement": "Mean duration of virus shedding, Tx (+) at PIDs 1-13", "setting": "human norovirus (HuNoV); [5]", "result": 7.5}, {"measurement": "Mean onset of virus shedding (PID)", "setting": "human norovirus (HuNoV); [5]", "result": 2.3, "unit": "PID"}, {"measurement": "effect of oral treatment on virus shedding compared to untreated animals (in words)", "setting": "human norovirus (HuNoV); HuNoV-inoculated Gn pigs", "result": "significantly reduced the duration of virus shedding"}, {"measurement": "Overall duration of virus shedding at PID1-27", "setting": "human norovirus (HuNoV); same regimen", "result": 7.5}, {"measurement": "Mean duration of virus shedding, Tx (−) at PIDs 14-27", "setting": "human norovirus (HuNoV); same regimen, after treatment discontinued", "result": 0}, {"measurement": "Mean log10 viral titer/rectal swab (GE/ml), Overall viral titer shed at PIDs 1-27", "setting": "human norovirus (HuNoV); [6]", "result": 4.86, "unit": "log10 GE/ml"}, {"measurement": "Mean log10 viral titer/rectal swab (GE/ml), Tx (+) at PIDs 1-13", "setting": "human norovirus (HuNoV); [6]", "result": 4.98, "unit": "log10 GE/ml"}, {"measurement": "Mean log10 viral titer/rectal swab (GE/ml), Tx (−) at PIDs 14-27", "setting": "human norovirus (HuNoV); [6]", "result": "<4.70", "unit": "log10 GE/ml"}]}
